From patent US20210276978A1, “INHIBITORS OF HISTONE DEACETYLASE” (Alkermes, Inc., priority 2018, published 2021) come the findings set out here.

Each structure is given as a SMILES string. Bounds are passed on as bounds.

Experiment [1] concerns the target T1, Full length Human HDAC1 (Homo sapiens, UniProt Q13547).
T1 construct: Full length Human HDAC1 with; His (C); FLAG (C); host or cells: baculovirus expression system
Kind of experiment: HDAC1 enzymatic assay (deacetylation of FAM-labeled peptide substrate, microfluidic electrophoresis). Format: biochemical. The settings on record: 1 uM substrate peptide. As for the experimental part:
(§1) HDAC2 and HDAC1 Enzymatic Assay (HDAC2 and HDAC1 IC50 Data)
(§2) The following describes an assay protocol for measuring the deacetylation of a peptide substrate by HDAC2 or HDAC1.
(§3) HDAC protein composition and respective substrate peptides are summarized below.
(§4) HDAC reactions are assembled in 384 well plates (Greiner) in a total volume of 20 µL as following:
(§5) HDAC proteins are pre-diluted in the assay buffer comprising: 100 mM HEPES, pH 7.5, 0.1% BSA, 0.01% Triton X-100, 25 mM KCl and dispensed into 384 well plate (10 uL per well).
(§6) Test compounds are serially pre-diluted in DMSO and added to the protein samples by acoustic dispensing (Labcyte Echo). Concentration of DMSO is equalized to 1% in all samples.
(§7) Control samples (0%-inhibition in the absence of inhibitor, DMSO only) and 100%-inhibition (in the absence of enzyme) are assembled in replicates of four and used to calculate the %-inhibition in the presence of compounds.
(§8) At this step compounds can be pre-incubated with enzyme if desired.
(§9) The reactions are initiated by addition of 10 uL of the FAM-labeled substrate peptide pre-diluted in the same assay buffer. Final concentration of substrate peptide is 1 uM (HDAC1-2). The reactions are allowed to proceed at room temperature. Following incubation, the reactions are quenched by addition of 50 µL of termination buffer (100 mM HEPES, pH7.5, 0.01% Triton X-100, 0.1% SDS). Terminated plates are analyzed on a microfluidic electrophoresis instrument (Caliper LabChip® 3000, Caliper Life Sciences/Perkin Elmer) which enables electrophoretic separation of de-acetylated product from acetylated substrate. A change in the relative intensity of the peptide substrate and product is the parameter measured. Activity in each test sample is determined as the product to sum ratio (PSR): P/(S+P), where P is the peak height of the product, and S is the peak height of the substrate. Percent inhibition (Pinh) is determined using the following equation: Pinh=(PSR0% inh−PSRcompound)/(PSR0% inh−PSR100% inh)*100, in which: PSRcompound is the product/sum ratio in the presence of compound, PSR0% inh is the product/sum ratio in the absence of compound and the PSR100% inh is the product/sum ratio in the absence of the enzyme. To determine IC50 of compounds (50%-inhibition) the %-inh data (Pinh versus compound concentration) are fit by a 4 parameter sigmoid dose-response model using XLfit software (IDBS).
(§10) In the table, “A” indicates a IC50 value of less than 0.5 “B” a IC50 value from 0.5 μM to 1.0 μM; “C” a IC50 value of greater than 1.0 μM and less than or equal to 2.0 μM; and “D” indicates an IC50 value of greater than 2.0 NT=Not Tested.

Experiment [2] concerns the target T2, Full length Human HDAC2 (Homo sapiens, UniProt Q92769).
T2 construct: Full length Human HDAC2 with; FLAG (C); host or cells: baculovirus expression system
The experiment is described as follows: HDAC2 enzymatic assay (deacetylation of FAM-labeled peptide substrate, microfluidic electrophoresis). The settings on record: 1 uM substrate peptide. Format: biochemical. The protocol: as §1, §2, §3, §4, §5, §6, §7, §8, §9, §10

Experiment [3] concerns the target T3, HDAC2 (Homo sapiens, UniProt Q92769).
T3 construct: host or cells: SH-SY5Y cells
The experiment is described as follows: HDAC2 enzymatic inhibition assay in SH-SY5Y cell lysate with an exogenous substrate (HDAC-Glo 2). Format: cell-based. The settings on record: for IC50: SH-SY5Y cells. As for the experimental part: HDAC2 Enzymatic Inhibition Assay in SH-SY5Y Cell Lysate with an Exogenous Substrate
SH-SY5Y cells (Sigma) were cultured in Eagle's Modified Essential Medium supplemented with 10% fetal bovine serum and pen/strep. Twenty-four hours prior to compound dosing 20 uL of cells were plated in white 384 well plates at a density of 1,500 cells/well. Compounds were serially diluted in neat DMSO and then diluted 1:100 v/v into media without FBS and mixed. Media was removed from the plated cells and the diluted compounds in serum free media (1% v/v final DMSO) were added and incubated at 37.0 for five hours. Ten uL of HDAC-Glo 2 reagent with 0.1% Triton X-100 was then added, the plate was mixed and allowed to develop at room temperature for 100 minutes. Plates were then read with a Spectramax LMax luminometer employing a 0.4 s integration time. Dose response curves were constructed with normalized data where CI-994 at 100 uM was defined as 100% inhibition and DMSO alone as 0% inhibition.
In the table, “A” indicates a IC50 value of less than 0.5 μM; “B” a IC50 value from 0.5 μM to 1.0 μM; “C” a IC50 value of greater than 1.0 μM and less than or equal to 2.0 μM; and “D” indicates an IC50 value of greater than 2.0 μM. NT=Not Tested.

Setting [4] is: HDAC-Glo 2, numeric values, Table 4.
The mark [5] stands for this setting: five hours incubation, HDAC-Glo 2 reagent, class symbols.
Setting [6] is: HDAC2 SH-SY5Y cell lysate assay.

T2 sequence (Q92769 whole entry): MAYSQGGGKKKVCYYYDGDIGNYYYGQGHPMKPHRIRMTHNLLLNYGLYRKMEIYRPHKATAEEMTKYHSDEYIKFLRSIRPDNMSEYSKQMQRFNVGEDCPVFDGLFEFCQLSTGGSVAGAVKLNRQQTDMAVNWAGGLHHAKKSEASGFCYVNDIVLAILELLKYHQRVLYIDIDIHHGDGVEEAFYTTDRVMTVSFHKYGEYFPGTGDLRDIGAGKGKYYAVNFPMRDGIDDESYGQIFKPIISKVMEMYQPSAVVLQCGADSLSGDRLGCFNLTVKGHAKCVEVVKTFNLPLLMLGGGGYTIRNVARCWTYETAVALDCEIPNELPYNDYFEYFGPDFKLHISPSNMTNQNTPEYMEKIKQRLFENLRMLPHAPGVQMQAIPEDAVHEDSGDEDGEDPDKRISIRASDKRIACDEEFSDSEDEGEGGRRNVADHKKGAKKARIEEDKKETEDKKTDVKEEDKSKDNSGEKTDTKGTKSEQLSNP
T3 sequence (Q92769 whole entry): as above
T1 sequence (Q13547 whole entry): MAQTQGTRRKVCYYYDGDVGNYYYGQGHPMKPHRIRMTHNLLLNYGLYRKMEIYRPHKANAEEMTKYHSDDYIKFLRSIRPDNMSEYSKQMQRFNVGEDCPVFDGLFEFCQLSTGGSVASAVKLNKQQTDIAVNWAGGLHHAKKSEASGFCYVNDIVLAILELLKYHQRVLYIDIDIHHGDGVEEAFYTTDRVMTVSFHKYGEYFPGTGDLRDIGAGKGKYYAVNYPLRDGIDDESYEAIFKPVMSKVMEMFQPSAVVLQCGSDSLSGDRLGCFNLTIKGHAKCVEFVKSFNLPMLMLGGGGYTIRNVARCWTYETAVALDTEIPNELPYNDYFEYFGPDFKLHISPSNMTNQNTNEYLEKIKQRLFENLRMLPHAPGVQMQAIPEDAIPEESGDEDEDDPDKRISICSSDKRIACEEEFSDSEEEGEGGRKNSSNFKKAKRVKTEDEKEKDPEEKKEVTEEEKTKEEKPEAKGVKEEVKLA

Take `Cc1cnc(C2CCN(C(=O)Nc3nc(-c4ccc(F)cc4F)ccc3N)C2)cn1` (stereo not drawn) [Compound 18]: the IC50 was 500 to 1000 nM in experiment [1], 500 to 1000 nM in experiment [2], 550 nM in experiment [3] (setting [4]) and 500 to 1000 nM in experiment [3] (setting [5]).

Regarding `Nc1ccc(-c2ccc(F)cc2)nc1NC(=O)N1CCC(c2ncccn2)C1` (stereo not drawn) [Compound 19], the IC50 in experiment [1] was < 500 nM; in experiment [2], < 500 nM; in experiment [3] (setting [4]) it was 421 nM; in experiment [3] (setting [5]), < 500 nM. Further, the “potency compared with Comparators A-C” value in experiment [3] (setting [6]) is “greater potency”.

In the case of `Nc1ccc(-c2ccc(F)cc2)nc1NC(=O)N1CCC(c2ncc(F)cn2)C1` (stereo not drawn) [Compound 20], the IC50 is < 500 nM in experiment [1], 500 to 1000 nM in experiment [2], 1130 nM in experiment [3] (setting [4]) and 1000 to 2000 nM in experiment [3] (setting [5]). In addition, the “fold more potent than Comparator A” value in experiment [3] (setting [6]) is reported as > 2 fold. In experiment [3] (setting [6]), the “potency compared with Comparators A-C” value was “greater potency”.

In the case of `Nc1ccc(-c2ccccc2F)nc1NC(=O)N1CCC(c2ncc(F)cn2)C1` (stereo not drawn) [Compound 21], the IC50 in experiment [1] was in the range of 500 to 1000 nM; in experiment [2], 1000 to 2000 nM; in experiment [3] (setting [5]) it was 1000 to 2000 nM.

For the compound `Nc1ccc(-c2ccc(F)cc2F)nc1NC(=O)N1CCC(Oc2ncccn2)C1` (stereo not drawn) [Compound 23], the IC50 in experiment [1], in experiment [2] and in experiment [3] (setting [5]) was > 2000 nM in each case.

Regarding `Nc1ccc(-c2ccc(F)cc2F)nc1NC(=O)N1CCC(Cc2ncccn2)C1` (stereo not drawn) [Compound 24], the IC50 is 1000 to 2000 nM in experiment [1], 1000 to 2000 nM in experiment [2], 1420 nM in experiment [3] (setting [4]) and 1000 to 2000 nM in experiment [3] (setting [5]).

`Nc1ccc(-c2ccc(F)cc2F)nc1NC(=O)N1CCC(Cc2cccnn2)C1` (stereo not drawn) [Compound 26]: the IC50 in experiment [1] is 1000 to 2000 nM; in experiment [2], 1000 to 2000 nM; in experiment [3] (setting [4]) it was 535 nM; in experiment [3] (setting [5]) it was 500 to 1000 nM.

For the compound `Nc1ccc(-c2ccc(F)cc2F)nc1NC(=O)N1CCC(F)(c2ncccn2)C1` (stereo not drawn) [Compound 29], the IC50 in experiment [1] was < 500 nM; in experiment [2], 500 to 1000 nM; in experiment [3] (setting [4]), 768 nM; in experiment [3] (setting [5]) it was 500 to 1000 nM.

On to `Cn1ccnc1CC1CCN(C(=O)Nc2nc(-c3ccc(F)cc3F)ccc2N)C1` (stereo not drawn) [Compound 36], for which the IC50 in experiment [1] is < 500 nM; in experiment [2], 500 to 1000 nM; in experiment [3] (setting [5]), 500 to 1000 nM.

Turning to `Nc1ccc(-c2cccs2)nc1NC(=O)N1CCC(c2ncccn2)C1` (stereo not drawn) [Compound 41], the IC50 in experiment [1] was < 500 nM; in experiment [2], 500 to 1000 nM; in experiment [3] (setting [5]) it was 500 to 1000 nM.

Regarding `Nc1ccc(-c2ccc(F)s2)nc1NC(=O)N1CCC(F)(c2ncccn2)C1` (stereo not drawn) [Compound 45], the results for the IC50 in experiment [1], in experiment [2] and in experiment [3] (setting [5]) were 500 to 1000 nM, 1000 to 2000 nM and 500 to 1000 nM, respectively.

In the case of `Cc1cnc(C2CCN(C(=O)Nc3nc(-c4ccc(F)cc4)ccc3N)C2)o1` (stereo not drawn) [Compound 46], the figures for the half-inhibitory concentration (IC50) in experiment [1], in experiment [2] and in experiment [3] (setting [5]) were 500 to 1000 nM, 1000 to 2000 nM and > 2000 nM, respectively.

With `Nc1ccc(-c2ccccc2F)nc1NC(=O)N1CCC(c2ncccn2)C1` (stereo not drawn) [Compound 48], the IC50 is 500 to 1000 nM in experiment [1], 1000 to 2000 nM in experiment [2] and 1000 to 2000 nM in experiment [3] (setting [5]).

With `Nc1ccc(-c2cccs2)nc1NC(=O)N1CCC(c2ncc(F)cn2)C1` (stereo not drawn) [Compound 49], the values for the IC50 in experiment [1], in experiment [2] and in experiment [3] (setting [5]) were < 500 nM, 1000 to 2000 nM and 1000 to 2000 nM, respectively.
